“Also recorded” adds a separate entry of the source.

Data on two compounds can be found in US20230355608A1, “TARGETING POLYCYTHEMIA VERA (PV)-INITIATING CELLS BY BLOCKING LEUKOTRIENE BINDING TO THEIR RECEPTORS” (UNIVERSITY OF MASSACHUSETTS, priority 2020, published 2023).

The subject of assay [1] is HEL cells. The experiment in a line: Apoptosis assay by FACS (Annexin V and 7-AAD). The format is cell-based, human. The conditions noted are these: compared with Ba/F3 cells. The method, then: (§1) A mouse Ba/F3 cell line transduced with pMSCV-IRES-GFP was used as a control. Mouse JAK2V617F-GFP-expressing Ba/F3 cell line was kindly provided by Dr. Ross Levine (Human Oncology and Pathogenesis Program, Memorial Sloan-Kettering Cancer Center, New York, NY). Human JAK2V617F-expressing HEL cell line was purchased from ATCC. Cell lines were cultured in RPMI-1640 medium containing 10% FCS and 50 μmol/L 2-mercaptoethanol. Ba/F3 cell line was cultured in the medium mentioned above with 10 ng/ml IL3. C57BL/6J mice were obtained from The Jackson Laboratory.
(§2) Cell numbers were counted in duplicates by trypan blue (Sigma-Aldrich) exclusion at 24 h and 48 h, respectively. FACS analysis was applied for cell cycle test using Hoechst and Pyronin (Sigma-Aldrich) staining, and for apoptosis assay staining with Annexin V and 7-AAD (eBiosciences) according to the manufacturer's instructions. Results are expressed as the mean±SD.

The subject of the next assay is KCL22 cells. The note with it: Yektaei-Karin et al. 2017; cited from earlier work.
Assay [2] deals with JAK2V617F-expressing Ba/F3 cells. The assay is described as follows: Cell growth, trypan blue exclusion cell count. The format is cell-based, mouse. The conditions noted are these: various doses (10-40 μM), 24 and 48 hours. The protocol:
as §1, §2

The test system of another assay is Ba/F3 cells. The experiment in a line: Cell growth, trypan blue exclusion cell count. The format is cell-based, mouse. The note with it: various doses (10-40 μM), 24 and 48 hours. The protocol:
as §1, §2

The subject of assay [3] is primary CD34+ blood cells from two CML patients. The note with it: Yektaei-Karin et al. 2017; cited from earlier work.
The subject of assay [4] is JAK2V617F-induced PV mice. The protocol: The bone marrow cells from donor mice, pretreated with 5-fluorouracil (5-FU), were infected with retrovirus containing pMSCV-JAK2V617F-GFP under conditions for the induction of PV as described previously, followed by transplantation of the transduced cells into C57BL/6J recipient mice.
To test this hypothesis, bone marrow cells (BM) were collected for FCM analysis after 4 months treatment.
PV model was induced in mice as follows: Bone marrow cells from 5-FU-treated (200 mg/kg) donor mice were transduced twice with JAK2V617F retrovirus in the presence of IL-3, IL-6, and stem cell factor (SCF). The recipient mice received 1,100 cGy lethal gamma irradiation (given by 2 split 550-cGy doses), followed by 2.0×10^6 cells transplantation via tail vein injection.
Hematopoietic cells were collected from peripheral blood and bone marrow of the PV mice, and red blood cells (RBCs) were eliminated using RBC lysis buffer (pH 7.4). Then the cells were stained with fluorescence-labeled antibodies (Gr−1 for neutrophils, c-kit and Sca−1 for stem cells) and subjected to FACS analysis. These antibodies were purchased from eBioscience Biotechnology. Data were acquired on a FACS Calibur flow cytometric analyzer (Becton Dickinson).
Water was used as placebo.

Assay [5] concerns Ba/F3-JAK2V617F cells. The assay is described as follows: Apoptosis assay by FACS (Annexin V and 7-AAD). It counts as cell-based, mouse. The conditions noted are these: compared with Ba/F3 cells. The method, then: as §1, §2
A general note: In flow cytometry, cells or beads pass a laser one at a time.

Another assay relates to KU812 cells. The conditions noted are these: Yektaei-Karin et al. 2017; cited from earlier work.
Another assay deals with K562 cells. The conditions noted are these: Yektaei-Karin et al. 2017; cited from earlier work.
Assay [6] deals with HEL cells. The experiment in a line: Cell-cycle progression by FACS (Hoechst and Pyronin). The format is cell-based, human. The protocol:
as §1, §2

In another assay the test system is parental Ba/F3 cells. Described as above. It counts as cell-based, mouse. The note with it: parental Ba/F3 cells that do not express JAK2V617F. The protocol: as §1, §2
In assay [7] the test system is Ba/F3-JAK2V617F cells. The description is as above. It counts as cell-based, mouse. The method, then: as §1, §2
Assay [8] concerns JAK2V617F-expressing human HEL cells. The experiment in a line: Cell growth, trypan blue exclusion cell count. The format is cell-based. The note with it: various doses (10-40 μM), 24 and 48 hours. The method, then: as §1, §2
Assay [9] relates to JAK2V617F-induced PV in mice. The conditions noted are these: Chen et al., Cancer Research 77(1):164-174; cited from earlier work.
In assay [10] the test system is human CD34+ cells from Polycythemia Vera (PV) patients. The conditions noted are these: Chen et al., Cancer Research 77(1):164-174; cited from earlier work.
The mark [11] stands for this setting: PV mice, 150 mg/kg once a day by gavage, vs placebo.
[12] abbreviates: PV mice, 150 mg/kg once a day by gavage, vs placebo, from 3rd month post treatment.
The mark [13] stands for this setting: PV mice, 150 mg/kg once a day by gavage, vs placebo, 150 mg/kg.
The mark [14] stands for this setting: PV mice, after 4 months treatment, vs placebo.

As to `CC(C)(O)c1ccccc1CC[C@@H](SCC1(CC(=O)[O-])CC1)c1cccc(/C=C/c2ccc3ccc(Cl)cc3n2)c1.[Na+]` [Montelukast, (R-(E))-1-(((1-(3-(2-(7-Chloro-2-quinolinyl)ethenyl)phenyl)-3-(2-(1-hydroxy-1-methylethyl)phenyl)propyl)thio)methyl)-cyclopropaneacetic acid], the apoptosis result in the assay on HEL cells [1] and in the assay with Ba/F3-JAK2V617F cells [5] was “more dramatic apoptosis” in each case. The cell growth result in the assay with KCL22 cells is recorded as “significantly reduced the growth”; in assay [2], “dose-dependent growth inhibition”; with Ba/F3 cells, “dose-dependent growth inhibition”; in assay [3], “significantly reduced the growth”; in the assay on KU812 cells, “significantly reduced the growth”; in the assay on K562 cells it was “significantly reduced the growth”. Besides, the cell growth result in [8] is “dose-dependent growth inhibition”. In [4] (PV mice vs placebo, at 10 weeks), the “non GFP (GFP-) cells (FIG. 5)” value is recorded as “showed a loss”. Further, the “GFP+ cells (FIG. 5)” value in [4] (PV mice vs placebo, by 6 and 10 weeks post treatment) was “loss of the GFP+ cells”. In addition, the “level of PLT” value in assay [4] (setting [11]) is listed as “did not significantly affect”. Besides, the “level of RBC” value in [4] (setting [11]) is on record as “did not significantly affect”. In addition, the “GFP+Gr-1+ PV cell number in peripheral blood” value in [4] (setting [12]) is on record as “increased more slowly”. Also, in assay [4] (setting [12]), the “GFP+Gr-1+ PV cell percentage in peripheral blood” value is given as “increased more slowly”. Moreover, in assay [4] (setting [13]), the HCT entry is “had an inhibitor compound effect”. In [4] (setting [13]), the HGB entry is “had an inhibitor compound effect”. Further, in [4] (setting [13]), the “fibrosis in bone marrow” value is reported as “efficiently relieved the fibrosis; also recorded: efficiently relieved fibrosis morphology”. In addition, the “GFP-Gr-1+ cell number in peripheral blood” value in assay [4] (PV mice, 150 mg/kg once a day by gavage, vs placebo, normal cells, 150 mg/kg) was “didn't show significant difference; also recorded: did not show a significant difference”. The “GFP+ PV cell number in BM” value in [4] (setting [14]) is reported as “dramatic decrease”. Besides, the “GFP+ PV cell percentage in BM” value in assay [4] (setting [14]) is “dramatic decrease”. For the same compound, the cell-cycle progression entry in the assay with HEL cells [6] is given as “blockade of cell-cycle progression”; with parental Ba/F3 cells it was “no significant cell-cycle block effect”; in the assay with Ba/F3-JAK2V617F cells [7], “blockade of cell-cycle progression”.

Consider `CC(c1cc2ccccc2s1)N(O)C(N)=O` (centres unmarked) [Zileuton], for which, in assay [9], the “development of PV in mice” value was “attenuates the development of PV”. The “proliferation of human CD34+ cells from PV patients” value in [10] is recorded as “reducing proliferation”.
